According to patent publication US20240254087A1, “SELECTIVE, PARTIAL, AND ARRESTIN-BIASED 5-HT2A AGONISTS WITH UTILITY IN VARIOUS DISORDERS” (Saint Joseph's University, priority 2021, published 2024):
Where two headings read alike, the source gives them in different places.

Key:
Parameters in all cases: expressed in transfected cells; host or cells: HEK293T, transient
5-HT2C = target: T1, 5-HT2C (Homo sapiens, UniProt P28335); test: BRET Gq dissociation, 5-HT2C; format: cell-based; settings: for Emax: read-out: 5-HT2C Gq Dissociation (BRET) EMAX ± SEM (%5-HT); for EC50: read-out: 5-HT2C Gq Dissociation (BRET) pEC50 ± SEM (converted)
T1 sequence (P28335 33-458): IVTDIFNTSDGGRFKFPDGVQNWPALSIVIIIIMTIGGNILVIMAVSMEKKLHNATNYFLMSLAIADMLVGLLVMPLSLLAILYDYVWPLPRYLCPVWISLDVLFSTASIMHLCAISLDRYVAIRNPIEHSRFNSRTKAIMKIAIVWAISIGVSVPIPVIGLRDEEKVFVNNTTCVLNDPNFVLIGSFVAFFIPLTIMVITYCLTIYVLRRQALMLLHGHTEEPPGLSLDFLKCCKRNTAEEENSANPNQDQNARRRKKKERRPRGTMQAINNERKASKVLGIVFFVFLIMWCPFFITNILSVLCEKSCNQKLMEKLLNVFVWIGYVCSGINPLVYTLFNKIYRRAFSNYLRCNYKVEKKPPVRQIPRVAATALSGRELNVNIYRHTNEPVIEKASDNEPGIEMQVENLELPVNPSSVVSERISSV
Description: (§1) After at least 18-24 hours, transfected cells were plated in poly-lysine coated 96-well white clear bottom cell culture plates in DMEM containing 1% dialyzed FBS at a density of 25-40,000 cells in 200 μL per well and incubated overnight. After approximately 20-24 hours, media was decanted and cells were washed with 60 μL of drug buffer (1×HBSS, 20 mM HEPES, pH 7.4), followed by 60 μL of drug buffer and pre-incubated in a humidified atmosphere at 37° C. before receiving drug stimulation. Drug stimulation was induced by adding 30 μL of a solution of drug (3X) diluted in McCorvy buffer (1×HBSS, 20 mM HEPES, pH 7.4, supplemented with 0.3% BSA fatty acid free, 0.03% ascorbic acid) and plates were incubated at the indicated time and temperature. Fifteen minutes before reading, 10 μL of the RLuc substrate, either coelenterazine h for β-Arrestin recruitment BRET^1 or coelenterazine 400a for Gq dissociation BRET^2 (Prolume/Nanolight, 5 μM final concentration) was addedper well. […] The BRET ratios of fluorescence/luminescence were calculated per well and were plotted as a function of drug concentration using Graphpad Prism 8 (Graphpad Software Inc., San Diego, CA).

5-HT2A [1] = target: T2, 5-HT2A (Homo sapiens, UniProt P28223); test: cell-based; settings: for Emax: read-out: 5-HT2A β-arrestin Emax (% 5-HT), BRET, mean ± SEM
Description: as §1

5-HT2B = 5-HT2B (Homo sapiens, UniProt P41595); test: BRET Gq dissociation, 5-HT2B; format: cell-based
Description: After at least 18-24 hours, transfected cells were plated in poly-lysine coated 96-well white clear bottom cell culture plates in DMEM containing 1% dialyzed FBS at a density of 25-40,000 cells in 200 μL per well and incubated overnight. After approximately 20-24 hours, media was decanted and cells were washed with 60 μL of drug buffer (1×HBSS, 20 mM HEPES, pH 7.4), followed by 60 μL of drug buffer and pre-incubated in a humidified atmosphere at 37° C. before receiving drug stimulation. Drug stimulation was induced by adding 30 μL of a solution of drug (3X) diluted in McCorvy buffer (1×HBSS, 20 mM HEPES, pH 7.4, supplemented with 0.3% BSA fatty acid free, 0.03% ascorbic acid) and plates were incubated at the indicated time and temperature. Fifteen minutes before reading, 10 μL of the RLuc substrate, either coelenterazine h for β-Arrestin recruitment BRET^1 or coelenterazine 400a for Gq dissociation BRET^2 (Prolume/Nanolight, 5 μM final concentration) was addedper well. Plates were read for luminescence at 485 nm and fluorescent eYFP emission at 530 nm for BRET^1 and at 400 nm and fluorescent GFP2 emission at 510 nm for BRET2 at 1 second per well using a Mithras LB940 (Berthold). The BRET ratios of fluorescence/luminescence were calculated per well and were plotted as a function of drug concentration using Graphpad Prism 8 (Graphpad Software Inc., San Diego, CA).

5-HT2A [2] = target: T2, 5-HT2A; test: cell-based; settings: for Emax: read-out: 5-HT2A Gq Emax (% 5-HT), BRET, mean ± SEM
Description: as §1

[3] = BRET, mean ± SEM, read-out: 5-HT2A β-arrestin recruitment pEC50 (converted)
[4] = BRET, mean ± SEM, read-out: 5-HT2A Gq dissociation pEC50 (converted)

5-HT2B, sequence (P41595 whole entry): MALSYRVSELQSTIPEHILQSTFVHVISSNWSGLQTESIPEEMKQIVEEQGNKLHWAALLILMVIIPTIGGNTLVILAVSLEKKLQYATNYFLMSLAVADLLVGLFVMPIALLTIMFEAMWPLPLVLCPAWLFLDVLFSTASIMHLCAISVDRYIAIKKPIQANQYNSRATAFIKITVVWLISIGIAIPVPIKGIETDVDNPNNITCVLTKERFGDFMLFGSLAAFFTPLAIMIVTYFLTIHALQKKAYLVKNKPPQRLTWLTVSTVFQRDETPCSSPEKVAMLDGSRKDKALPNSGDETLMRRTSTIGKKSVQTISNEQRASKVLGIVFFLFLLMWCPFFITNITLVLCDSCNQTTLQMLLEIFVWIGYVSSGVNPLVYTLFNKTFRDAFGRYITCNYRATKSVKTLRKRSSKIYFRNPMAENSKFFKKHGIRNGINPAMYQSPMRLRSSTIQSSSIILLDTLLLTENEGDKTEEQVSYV
T2 sequence (P28223 whole entry): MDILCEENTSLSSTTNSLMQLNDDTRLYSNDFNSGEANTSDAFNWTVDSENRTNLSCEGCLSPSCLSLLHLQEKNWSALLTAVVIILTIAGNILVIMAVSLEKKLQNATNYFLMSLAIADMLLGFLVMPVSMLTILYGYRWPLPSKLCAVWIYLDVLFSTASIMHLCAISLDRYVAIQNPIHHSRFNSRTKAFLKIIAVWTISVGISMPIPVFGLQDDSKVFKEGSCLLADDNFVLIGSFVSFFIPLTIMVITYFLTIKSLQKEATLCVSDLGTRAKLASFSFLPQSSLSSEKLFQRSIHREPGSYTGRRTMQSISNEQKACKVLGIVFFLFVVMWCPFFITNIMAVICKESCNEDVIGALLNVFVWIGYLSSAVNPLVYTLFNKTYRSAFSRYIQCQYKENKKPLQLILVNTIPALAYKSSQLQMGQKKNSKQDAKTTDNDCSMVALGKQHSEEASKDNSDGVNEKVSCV

SMILES	Emax (5-HT2C) [%]	EC50 (5-HT2C) [nM]	EC50 (5-HT2A [1]; [3]) [nM]	Emax (5-HT2A [1]) [%]	5-HT2B Gq Dissociation (BRET) EMAX ± SEM (%5-HT) (5-HT2B)	5-HT2B Gq Dissociation (BRET) pEC50 ± SEM (5-HT2B)	EC50 (5-HT2A [2]; [4]) [nM]	Emax (5-HT2A [2]) [%]	EC50 (5-HT2A [2]) [nM]	EC50 (5-HT2A [1]) [nM]	5-HT2A Gq dissociation pEC50 (5-HT2A [2]; BRET, mean ± SEM)	5-HT2A β-arrestin Emax (% 5-HT) (5-HT2A [1]; BRET, mean ± SEM)	5-HT2A β-arrestin recruitment pEC50 (5-HT2A [1]; BRET, mean ± SEM)	5-HT2A Gq Emax (% 5-HT) (5-HT2A [2]; BRET, mean ± SEM)
COc1cc(OC)c(OC)cc1CCNCc1cccc2cccnc12 [(54)]	90.5 ± 3.1	14.8	8.51	100 ± 3.5	No activity	No activity	11.2	54.3 ± 1.5						
COc1cc(CCNC2CCc3cccc(O)c32)c(OC)cc1C (stereo not shown) [(84)]			3.47	113 ± 4.3			2.69	71.9 ± 4.9						
COc1cc(CCNCc2ccccc2-c2ccccc2)c(OC)cc1C [25D-NBPh (28)]				107 ± 4.7				23.2 ± 4.8						
COc1cc(CCNCc2cccc(C)c2O)cc(OC)c1Br [(44)]	80.2 ± 2.1	7.08	11.2	66.1 ± 2.8	No activity	No activity	12	70.4 ± 1.2						
COc1cc(CCNCc2cccc(C)c2O)ccc1Cl [(47)]	98 ± 3.1	19.5	6.92	80.5 ± 3.2	No activity	No activity	30.9	66.9 ± 1.8						
COc1cc(OC)c(OC)cc1CCNCc1cccc(Br)c1O [(48)]	69.2 ± 6.1	174	8.13	85 ± 4.8	No activity	No activity	20.4	53.6 ± 1.7						
COc1cc(Br)cc(OC)c1CCNCc1cccc2ccccc12 [(32)]	81 ± 1.6	6.31	1.05	85.5 ± 2	No activity	No activity	3.89	33 ± 1.1						
COc1cc(OC)c(OC)cc1CCNCc1cccc(-c2ccccc2)c1 [(62)]	72.8 ± 5.2	219	56.2	112 ± 6.2	No activity	No activity		23.7 ± 2.1	182					
COc1cc(OC)c(OC)cc1CCNCc1ccccc1Oc1ccccc1 [(60)]	113 ± 11.6	1700		117 ± 14.6	No activity	No activity		63.3 ± 3.5						
COc1cc(OC)c(OC)cc1CCNCc1cccc2ncccc12 [(57)]	77.6 ± 3.2	200		92 ± 8.9	No activity	No activity		34.2 ± 4						
COc1cc(Br)ccc1CCNCc1cccc2ccccc12 [(36)]	76 ± 1.8	24.5		80.2 ± 3.1	No activity	No activity		26.3 ± 1.2						
COc1cc(OC)c(OC)cc1CCNCc1cccc2c1CCC2 [(51)]	52.5 ± 5.2	93.3	3.31	72.9 ± 4.2	No activity	No activity	1.7	41.2 ± 1.9						
COc1cc(CCNCc2cccc3ccccc23)c(OC)cc1C [25D-N1-Nap (27)]				75.5 ± 2.4				34.3 ± 2.9						
COc1cc(Br)cc(OC)c1CCNCc1cccc(C)c1O [(42)]	78.1 ± 1.6	1.51	0.513	78.9 ± 3.7	No activity	No activity	1.1	69.2 ± 1.5						
COc1cc(OC)c(OC)cc1CCNCc1cccc(I)c1O [(49)]	93.5 ± 3.1	26.9	11.7	80.5 ± 5.5	No activity	No activity	14.5	52.8 ± 1.5						
COc1cc(CCNCc2cccc3ccccc23)ccc1Cl [(40)]	87.8 ± 2	97.7		80.8 ± 3.8	No activity	No activity		29.9 ± 1.8						
COc1cc(Br)c(CCNCc2cccc3ccccc23)cc1OC [(30)]	81.4 ± 3.4	66.1	4.47	65.1 ± 3	No activity	No activity	42.7	32.3 ± 1.6						
COc1cc(CCNC2CCc3ccccc32)c(OC)cc1C (stereo not shown) [(83)]			8.13	112 ± 11.5			6.31	50.7 ± 7						
COc1cc(Br)cc(OC)c1CC(C)NCc1cccc2ccccc12 (stereo not shown) [(33)]	80.3 ± 2.4	64.6	4.9	98.3 ± 3.3	No activity	No activity	31.6	36.6 ± 1.1						
COc1cc(CCNCc2cccc3ccccc23)cc(OC)c1Br [(31), 2-(4-bromo-3,5-dimethoxyphenyl)-N-[(naphthalen-1-yl)-methyl]ethan-1-amine]	80.2 ± 2.2	41.7	35.5	50.8 ± 3.4	No activity	No activity		20.3 ± 1.9	170					
COc1cc(OC)c(OC)cc1CCNCc1cccc(-c2ccccc2)c1O [(63)]	79.2 ± 2.6	51.3		117 ± 14.6	No activity	No activity		< 10		102	No activity			
COc1cc(CCNC2Cc3ccccc3C2)c(OC)cc1C [(85)]			5.13	70.9 ± 5.1			17.8	53.5 ± 4.3						
CN(C)CCc1c[nH]c2ccccc12 [DMT, reference compound]											7.17 ± 0.07	64 ± 3	7.12 ± 0.13	76 ± 2
COc1cc(CCN)c(OC)cc1Br [Compound 2C-B, reference compound]					97.4 ± 1.4 %5-HT	7.90 ± 0.04					8.92 ± 0.03	84.0 ± 1.0	8.62 ± 0.04	100.8 ± 0.9
